Results published in ChEMBL document CHEMBL1201862, “PubChem BioAssay data set” (2004).
Activity calls are given as the source filed them.

What was measured:
Genome polyprotein = Genome polyprotein (dengue virus type 2, UniProt P29990); experiment: flavivirus cap methylation enzyme inhibition – biochemical, confirmation dose response, primary screen (AID 588689); format: functional
[1] = biological target: Heat shock protein HSP 90-alpha (Homo sapiens, UniProt P07900); format: functional, organism-based
[2] = NIH-3T3 fibroblast cytotoxicity, dose response, cytotoxicity control, cell-based, fluorescence, Alamar Blue, secondary assay (AID 2327); format: functional;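 also: NIH-3T3 mouse fibroblasts cultured with fluconazole at 8 µg/mL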
[3] = biological target: T1, Polyadenylate-binding protein 1 (Homo sapiens, UniProt P11940); experiment: MLLE binding blockers, Cy5 peptide tracer – biochemical, fluorescence polarization, Cy5-PAM2 peptide, secondary, miRNA deadenylation inhibitor project, dose response (AID 602260); format: functional; conditions: read-out: IC50_Mean
[4] = biological target: Ras and Rab interactor 1/Tyrosine-protein kinase ABL1 (Homo sapiens, UniProt P00519+Q13671); format: functional;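 also: biochemical TR-FRET dose-response test measuring inhibition of binding between Rin1 and Abl proteins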
[5] = biological target: T1, Polyadenylate-binding protein 1; experiment: MLLE domain peptide-binding blockers, IC50 – biochemical, fluorescence polarization, FITC-PAM2 peptide, dose response (AID 602259); format: functional; conditions: read-out: IC50_Mean
[6] = fluconazole-exposed Candida albicans growth modulators – fluorescence, retest, confirmation (AID 2467); format: functional, cell-based
[7] = biological target: Serine/threonine-protein phosphatase (Homo sapiens, UniProt Q9BPW0); experiment: Counterscreen for inhibitors of PP1: fluorescence-based biochemical high throughput dose response assay to identify inhibitors of Protein Phosphatase 5 (PP5). [Related pubchem assays: 2034 (Summary (PP5 inhibitors)), 1987 (PP5 inhibitors in singlate), 2235 (PP1 inhibitors in singlate)]
Vero = experiment: viability of Vero cells under compound – cytotoxicity control for flavivirus capping enzyme inhibitors (AID 588742); format: functional; conditions: Chlorocebus sabaeus
[8] = biological target: Serine/threonine-protein phosphatase PP1-alpha catalytic subunit (Homo sapiens, UniProt P62136); experiment: inhibition of protein phosphatase 1 activity – biochemical, fluorescence, dose response (AID 2403);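 also: phosphatase turnover of OMFP into fluorescent 3-O-methylfluorescein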
[9] = A cytotoxicity screen of small molecule inhibitors of the PhoP region in Salmonella typhi identified in the primary screen. [Related pubchem assays: 1850, 1864, 1985 ]; format: functional
Staphylococcus aureus = experiment: Inhibitors of Bacterial Quorum Sensing Structure Activity Relationship (SAR) Analysis: Dose Response Assay. [Related pubchem assays: 700, 527 ]; format: functional, organism-based
[10] = biological target: Transitional endoplasmic reticulum ATPase (Homo sapiens, UniProt P55072); experiment: p97 ATPase inhibitors, dose response, biochemical (AID 1534)
[11] = biological target: Transitional endoplasmic reticulum ATPase (Homo sapiens, UniProt P55072, C522A); experiment: C522A mutant p97 ATPase inhibitors, dose response, counter-screen for p97 inhibitor project, biochemical, luminescence (AID 1544)
[12] = A Cell Based Secondary Assay To Explore Cytotoxicity of Compounds that Sensitize Mycobacterium Tuberculosis to Beta-Lactam Antibiotics.; format: functional
H9c2 = experiment: cells; format: functional, cell-based; conditions: Rattus norvegicus, H9c2, Myocardium;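 also: confirmatory concentration-response retest of ultra-high-throughput screening hits for modulation of myocardial damage; cell death induced by hydrogen peroxide oxidative stress; compound pretreatment for 60 min then peroxide exposure for 2 h; potency is for protecting the cells against peroxide damage rather than for killing them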
[13] = biological target: T2, Alkaline phosphatase, tissue-nonspecific isozyme (Homo sapiens, UniProt P05186)
T2 sequence (P05186 whole entry): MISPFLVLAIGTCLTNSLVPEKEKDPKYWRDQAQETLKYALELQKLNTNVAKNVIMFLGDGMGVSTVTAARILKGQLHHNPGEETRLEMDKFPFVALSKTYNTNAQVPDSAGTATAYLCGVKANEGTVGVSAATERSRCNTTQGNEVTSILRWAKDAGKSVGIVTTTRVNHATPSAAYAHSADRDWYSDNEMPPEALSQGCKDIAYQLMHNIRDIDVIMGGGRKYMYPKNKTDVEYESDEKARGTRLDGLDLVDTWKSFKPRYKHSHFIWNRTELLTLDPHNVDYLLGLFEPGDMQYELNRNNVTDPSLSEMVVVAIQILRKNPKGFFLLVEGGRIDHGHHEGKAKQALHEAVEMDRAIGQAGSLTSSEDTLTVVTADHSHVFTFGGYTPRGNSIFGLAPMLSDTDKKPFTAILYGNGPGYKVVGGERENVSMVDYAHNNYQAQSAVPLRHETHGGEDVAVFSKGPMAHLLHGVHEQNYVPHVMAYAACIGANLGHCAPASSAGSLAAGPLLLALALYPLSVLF

[14] = biological target: Acyl-homoserine lactone acylase PvdQ (Pseudomonas aeruginosa (strain LESB58), UniProt Q9I194); experiment: PvdQ acylase enzyme activity blockers – biochemical, fluorescence, plate reader and imaging, cherry-picks, dose response (AID 493231)

T1 sequence (P11940 whole entry): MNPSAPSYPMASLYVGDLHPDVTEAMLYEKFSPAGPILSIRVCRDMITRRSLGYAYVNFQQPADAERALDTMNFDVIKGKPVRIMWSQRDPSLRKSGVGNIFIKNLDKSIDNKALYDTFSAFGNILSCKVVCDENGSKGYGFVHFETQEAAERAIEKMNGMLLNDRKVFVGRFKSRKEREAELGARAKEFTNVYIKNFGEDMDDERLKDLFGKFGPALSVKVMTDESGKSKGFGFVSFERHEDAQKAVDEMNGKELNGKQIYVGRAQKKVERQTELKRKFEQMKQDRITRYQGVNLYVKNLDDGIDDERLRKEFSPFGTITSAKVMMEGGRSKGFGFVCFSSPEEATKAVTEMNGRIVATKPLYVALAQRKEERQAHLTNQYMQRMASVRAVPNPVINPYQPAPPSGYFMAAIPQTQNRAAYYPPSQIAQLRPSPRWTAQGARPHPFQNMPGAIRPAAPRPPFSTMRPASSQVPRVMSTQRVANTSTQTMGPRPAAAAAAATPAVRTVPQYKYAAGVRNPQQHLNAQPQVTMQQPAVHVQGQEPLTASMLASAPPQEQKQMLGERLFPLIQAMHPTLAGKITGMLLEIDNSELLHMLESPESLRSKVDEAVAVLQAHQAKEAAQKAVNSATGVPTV
Sequence of Genome polyprotein (P29990 2492-3391 limits assumed): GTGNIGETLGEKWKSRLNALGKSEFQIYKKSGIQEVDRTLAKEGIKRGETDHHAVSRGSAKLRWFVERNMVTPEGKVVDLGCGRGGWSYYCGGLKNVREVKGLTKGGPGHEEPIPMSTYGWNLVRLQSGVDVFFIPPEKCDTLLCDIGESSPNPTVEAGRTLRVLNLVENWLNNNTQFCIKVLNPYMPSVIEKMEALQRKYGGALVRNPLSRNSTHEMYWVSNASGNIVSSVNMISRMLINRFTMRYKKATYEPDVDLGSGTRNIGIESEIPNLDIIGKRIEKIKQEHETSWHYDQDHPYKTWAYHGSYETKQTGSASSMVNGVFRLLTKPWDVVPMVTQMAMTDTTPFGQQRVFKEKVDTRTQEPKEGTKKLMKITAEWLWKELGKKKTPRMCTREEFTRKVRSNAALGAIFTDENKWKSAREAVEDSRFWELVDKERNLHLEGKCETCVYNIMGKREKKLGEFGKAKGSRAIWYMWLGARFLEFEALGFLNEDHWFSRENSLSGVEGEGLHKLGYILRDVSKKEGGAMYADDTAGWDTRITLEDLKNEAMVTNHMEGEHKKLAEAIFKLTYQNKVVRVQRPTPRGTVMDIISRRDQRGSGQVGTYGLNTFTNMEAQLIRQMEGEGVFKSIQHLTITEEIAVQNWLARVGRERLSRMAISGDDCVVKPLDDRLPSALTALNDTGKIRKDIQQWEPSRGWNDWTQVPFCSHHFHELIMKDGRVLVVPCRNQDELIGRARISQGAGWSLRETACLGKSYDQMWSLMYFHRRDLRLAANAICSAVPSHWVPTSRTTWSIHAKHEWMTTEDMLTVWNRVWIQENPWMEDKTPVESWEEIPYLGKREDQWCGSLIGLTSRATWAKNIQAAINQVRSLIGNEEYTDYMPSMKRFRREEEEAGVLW
Sequence of Transitional endoplasmic reticulum ATPase (Homo sapiens, UniProt P55072) (P55072 whole entry): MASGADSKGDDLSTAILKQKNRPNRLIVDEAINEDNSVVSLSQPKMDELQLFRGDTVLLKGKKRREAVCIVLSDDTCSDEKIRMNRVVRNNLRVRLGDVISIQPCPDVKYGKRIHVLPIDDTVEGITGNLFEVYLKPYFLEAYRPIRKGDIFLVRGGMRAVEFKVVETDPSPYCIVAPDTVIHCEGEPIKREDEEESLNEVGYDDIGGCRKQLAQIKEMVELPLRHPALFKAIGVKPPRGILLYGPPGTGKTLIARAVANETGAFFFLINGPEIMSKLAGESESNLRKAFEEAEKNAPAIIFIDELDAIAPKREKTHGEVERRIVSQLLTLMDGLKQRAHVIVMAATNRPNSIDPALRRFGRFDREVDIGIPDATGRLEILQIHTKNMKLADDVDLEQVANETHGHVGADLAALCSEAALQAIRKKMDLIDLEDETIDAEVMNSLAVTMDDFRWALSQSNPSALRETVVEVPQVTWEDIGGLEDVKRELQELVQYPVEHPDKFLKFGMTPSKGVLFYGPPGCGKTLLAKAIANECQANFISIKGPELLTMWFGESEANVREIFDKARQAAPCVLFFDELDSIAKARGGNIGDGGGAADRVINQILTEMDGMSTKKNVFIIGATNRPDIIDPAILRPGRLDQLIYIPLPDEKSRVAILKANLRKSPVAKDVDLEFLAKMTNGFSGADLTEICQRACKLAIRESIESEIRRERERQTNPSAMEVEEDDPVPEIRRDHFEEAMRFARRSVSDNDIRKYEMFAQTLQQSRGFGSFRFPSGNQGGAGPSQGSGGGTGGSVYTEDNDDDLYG
Sequence of Serine/threonine-protein phosphatase (Q9BPW0 whole entry): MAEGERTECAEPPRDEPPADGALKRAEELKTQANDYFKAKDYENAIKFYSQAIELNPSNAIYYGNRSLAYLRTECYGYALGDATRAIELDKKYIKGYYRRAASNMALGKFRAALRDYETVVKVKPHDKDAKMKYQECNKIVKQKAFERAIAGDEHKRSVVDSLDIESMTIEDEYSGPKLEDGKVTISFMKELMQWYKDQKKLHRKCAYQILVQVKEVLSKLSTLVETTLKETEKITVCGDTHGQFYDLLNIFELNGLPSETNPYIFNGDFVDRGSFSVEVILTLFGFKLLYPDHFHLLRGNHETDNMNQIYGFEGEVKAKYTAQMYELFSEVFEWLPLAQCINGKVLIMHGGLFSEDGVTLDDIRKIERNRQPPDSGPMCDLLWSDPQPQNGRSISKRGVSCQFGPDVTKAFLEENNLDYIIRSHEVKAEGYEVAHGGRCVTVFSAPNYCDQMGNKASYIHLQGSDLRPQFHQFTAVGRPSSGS
Sequence of Serine/threonine-protein phosphatase PP1-alpha catalytic subunit (P62136 whole entry): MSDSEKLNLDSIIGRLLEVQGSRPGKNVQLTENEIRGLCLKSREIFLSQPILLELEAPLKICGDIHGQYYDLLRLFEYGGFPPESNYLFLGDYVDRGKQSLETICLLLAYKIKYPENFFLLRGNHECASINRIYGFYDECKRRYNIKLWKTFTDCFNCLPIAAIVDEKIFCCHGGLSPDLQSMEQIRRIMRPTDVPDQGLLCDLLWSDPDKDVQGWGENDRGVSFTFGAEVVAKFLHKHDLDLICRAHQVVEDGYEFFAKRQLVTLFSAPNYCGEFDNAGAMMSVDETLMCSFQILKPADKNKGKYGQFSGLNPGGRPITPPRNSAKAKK
Sequence of Ras and Rab interactor 1/Tyrosine-protein kinase ABL1 (P00519 whole entry, the tested form may be a part): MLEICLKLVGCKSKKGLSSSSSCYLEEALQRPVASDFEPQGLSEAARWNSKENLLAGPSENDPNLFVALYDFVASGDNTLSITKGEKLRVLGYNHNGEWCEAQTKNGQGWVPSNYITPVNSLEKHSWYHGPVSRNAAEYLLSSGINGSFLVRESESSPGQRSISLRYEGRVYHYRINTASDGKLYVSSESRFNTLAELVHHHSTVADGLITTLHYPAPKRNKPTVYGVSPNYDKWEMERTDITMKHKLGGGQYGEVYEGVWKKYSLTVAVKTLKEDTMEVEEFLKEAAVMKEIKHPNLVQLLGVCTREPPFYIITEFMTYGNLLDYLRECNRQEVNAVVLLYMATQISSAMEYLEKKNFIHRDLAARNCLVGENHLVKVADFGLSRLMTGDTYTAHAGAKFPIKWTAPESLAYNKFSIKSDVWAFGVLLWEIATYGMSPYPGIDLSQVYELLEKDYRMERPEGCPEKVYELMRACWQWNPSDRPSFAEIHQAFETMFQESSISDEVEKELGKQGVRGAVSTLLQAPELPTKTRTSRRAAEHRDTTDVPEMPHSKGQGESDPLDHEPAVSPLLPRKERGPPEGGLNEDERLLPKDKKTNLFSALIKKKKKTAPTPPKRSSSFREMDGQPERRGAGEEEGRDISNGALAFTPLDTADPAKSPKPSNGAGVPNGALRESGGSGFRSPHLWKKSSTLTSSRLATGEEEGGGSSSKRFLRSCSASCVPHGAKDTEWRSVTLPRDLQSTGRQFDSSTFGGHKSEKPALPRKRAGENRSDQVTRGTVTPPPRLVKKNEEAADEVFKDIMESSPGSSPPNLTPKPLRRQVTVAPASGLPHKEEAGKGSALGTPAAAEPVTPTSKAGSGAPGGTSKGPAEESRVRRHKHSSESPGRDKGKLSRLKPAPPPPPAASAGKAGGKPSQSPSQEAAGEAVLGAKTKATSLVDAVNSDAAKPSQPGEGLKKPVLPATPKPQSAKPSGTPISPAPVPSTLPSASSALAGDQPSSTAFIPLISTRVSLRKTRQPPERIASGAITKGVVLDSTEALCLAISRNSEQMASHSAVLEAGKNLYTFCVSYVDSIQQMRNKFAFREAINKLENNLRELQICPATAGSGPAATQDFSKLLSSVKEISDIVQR
Sequence of Ras and Rab interactor 1/Tyrosine-protein kinase ABL1 (Q13671 whole entry, the tested form may be a part): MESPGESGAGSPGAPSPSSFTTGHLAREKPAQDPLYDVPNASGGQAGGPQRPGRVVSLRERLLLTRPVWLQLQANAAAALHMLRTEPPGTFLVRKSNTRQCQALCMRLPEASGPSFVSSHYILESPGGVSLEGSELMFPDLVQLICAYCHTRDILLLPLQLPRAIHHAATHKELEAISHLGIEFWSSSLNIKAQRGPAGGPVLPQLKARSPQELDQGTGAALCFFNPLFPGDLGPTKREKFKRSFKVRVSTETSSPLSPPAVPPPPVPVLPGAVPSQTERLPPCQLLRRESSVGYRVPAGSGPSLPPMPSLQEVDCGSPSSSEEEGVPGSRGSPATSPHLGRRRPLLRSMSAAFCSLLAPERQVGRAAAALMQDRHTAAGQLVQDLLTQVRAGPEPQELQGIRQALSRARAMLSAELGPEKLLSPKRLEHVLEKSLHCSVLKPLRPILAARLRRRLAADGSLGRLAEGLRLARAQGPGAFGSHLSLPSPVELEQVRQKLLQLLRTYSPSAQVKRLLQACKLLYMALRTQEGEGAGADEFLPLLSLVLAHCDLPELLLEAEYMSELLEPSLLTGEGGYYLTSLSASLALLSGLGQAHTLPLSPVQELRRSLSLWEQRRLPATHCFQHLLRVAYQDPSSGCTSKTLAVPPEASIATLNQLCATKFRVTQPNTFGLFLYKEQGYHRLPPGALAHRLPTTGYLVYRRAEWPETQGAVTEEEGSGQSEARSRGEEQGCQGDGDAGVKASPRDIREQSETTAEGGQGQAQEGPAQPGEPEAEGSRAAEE

For `CN1CCN(C(c2ccccn2)c2cc(Cl)c3cccnc3c2O)CC1` (stereo not drawn), the IC50 (Genome polyprotein) was > 100 µM (active), the AC50 [1] was 6.54 µM (active) and the EC50 [2] was 24.9 µM (active). For the same compound, the IC50 [3] was > 66 µM (inactive), the IC50 [4] was > 73.5 µM (inactive) and the IC50 [5] was > 66 µM (inactive). The EC50 [6] was 1.42 µM (active), the IC50 [7] was 47.6 µM (not active) and the CC50 (Vero) was 37.2 µM (active). The IC50 [8] was 4.17 µM (active).
With `Cc1nn(-c2cc(N3CCNCC3)ccc2[N+](=O)[O-])c(=O)c2ccccc12` the EC50 [9] was > 50 µM (active).
For `O=C(NCC(c1cccnc1)N1CCN(c2ccccc2F)CC1)c1cccc(Cl)c1` (stereo not drawn), the IC50 (Staphylococcus aureus) was 0.597 µM (active).
In the case of `Fc1ccccc1-c1nc(NCc2ccccc2)c2ccccc2n1`, the IC50 [10] is reported as > 50 µM (not active) and the IC50 [11] is reported as > 50 µM (not active).
With `Cc1ccc(C)c(NC(=O)C(Sc2nc3ccccc3c(=O)n2CC(C)C)c2ccccc2)c1` (stereo not drawn) the CC50 [12] was 21.3 µM (active), the IC50 (H9c2) was 36.3 µM (inactive) and the EC50 [13] was > 100 µM (not active).
With `N#CC(c1ccc(Cl)nn1)c1ccccc1Cl` (stereo not drawn) the AC50 [14] was 0.944 µM (active).
